Consider one compound from US9889135B2, “Companion diagnostic for CDK4 inhibitors” (Memorial Sloan-Kettering Cancer Center, priority 2013, dated 2018).

What all share (type): cell-based, human
Experiment [1] deals with MDM2 in LS0082, LS141 and LS8817 cells. In words: MDM2 turnover (cycloheximide chase), responder cells. The note with it: 1 μM for 48 hrs, then cycloheximide. The protocol:
The level of MDM2 was measured by immunoblot (center). Tubulin was a loading control. […] This experiment was repeated at least three times on different biologic replicates. […] Tubulin is a loading control. Data compiled from at least three independent experiments is plotted (mean and standard deviation) and a representative immunoblot is shown. […] The graphs are compiled from the data obtained in three independent biologic replicates and representative autoradiographs are shown.

Experiment [2] relates to seven RB-positive patient derived WD/DDLS cell lines. In words: BrdU incorporation in liposarcoma cell lines. The settings on record: asynchronously growing cells, 48 hours. How it is done: (§1) FIG. 1A-C. […] Mean percentage of BrdU incorporation or annexin V+/7-AAD− cells was calculated from three or more independent experiments. Error bars represent standard deviation (*p<0.05).
Cell lines were developed from WD/DDLS tumors resected from surgical patients after obtaining informed consent. LS8817 and LS0082 have previously been described using the nomenclature DDLS8817 and WD0082. DNA was extracted from cell lines using standard protocols (QIAGEN DNEasy) and lineage confirmed by copy number array to confirm amplification of segment 12q13-15 (Agilent 244K according to manufacturer's specifications). Analysis of comparative genomic hybridization data was performed using a custom pipeline, which conducts the standard circular binary segmentation from the R/bioconductor DNA copy library and processes all samples with the RAE algorithm (47). […]
shRNA were delivered in the pLKO.1 vector (Sigma) and infected cells selected using puromycin (1 μg/ml); infection with a virus carrying a scramble control ([…]) was used as a control in all experiments utilizing shRNA. […] G0 content was determined by staining with propidium iodine and FACS analyses (49).
(§2) Cells were stained with BrdU (20 μM for two hours) or annexin V as previously described (22, 48). […] was determined by staining with propidium iodine and FACS analyses (49).
(Incorporation of labelled thymidine or its analogues reports DNA synthesis.)

Experiment [3] concerns CHK2 mobility and KAP1 phosphorylation in WD/DDLS cell lines. In words: markers of ATM activity by immunoblot. The settings on record: LS8817, LS141, LS8107, LS8313 and LS7785-1. The text has this: (§3) Extracts from control and irradiated mouse embryo fibroblasts were included as a control. Tubulin is a control. (B) γH2AX and 53BP1 foci were scored in the indicated cell lines. As per (Doll et al., 2009; […] et al., 2012) having a cell with greater than 10 foci (white) is considered positive for DNA damage. As expected for WD/DDLS cell lines the basal level of DNA damage was quite high.
On the technique in general: In western blotting, separated proteins are transferred to a membrane and probed.

Another experiment relates to WD/DDLS cell lines. In words: annexin V staining (apoptosis). The note with it: PD0332991, 48 hours, any of the seven cell lines. The protocol: as §1
FIG. 13A-B. Nutlin-3a induces apoptosis in all the liposarcoma cell lines. The indicated cell lines were treated with nutlin-3a or vehicle control and extracts were prepared for immunoblotting (A) or annexin V staining (B) forty-eight hours after treatment. Mean percentage of annexin V+/7-AAD− cells was calculated from three or more independent experiments. Error bars represent standard deviation (*p<0.05).
as §2

The subject of experiment [4] is γH2AX and 53BP1 foci in LS8817 cells. The experiment in a line: DNA damage foci.
From the text: as §3

Experiment [5] relates to γH2AX and 53BP1 foci in LS8107 and LS7785-10 cells. In words: DNA damage foci.
From the text: as §3

In experiment [6] the test system is LS8817, LS141 and LS0082 cells. In words: SA-β-gal and SAHF (HP1γ) senescence staining, responder lines. An excerpt: Mean percentage standard deviation). […] (A) Senescence-associated β-galactosidase and (B) HP1γ staining for senescence associated heterochromatic foci (SAHF) formation was quantitated for three or more independent experiments for each cell line. […] Representative phase contrast micrographs of cells stained for SA-β-gal or immunofluorescence staining for HP1γ in two of the cell lines before (ctrl) and after (PD) drug treatment are shown in the insets of FIGS. 2A and 2B, respectively. (C) BrdU incorporation. […] Error bars represent the standard deviation of the mean calculated from three independent trials. […] Cell number was quantitated by DAPI staining and β-galactosidase staining quantitated as a proportion of total cells. Senescence associated heterochromatic foci were quantitated after cells were fixed with 4% paraformaldehyde, permeabilized with 0.1% Triton, blocked with 2% FBS, and stained with antibodies against HP1γ (1:5000 dilution, 2MOD-1G6 Millipore). Senescent cells were identified by immunofluorescence after treatment of slides with anti-mouse secondary antibodies and quantitation of focal SAHF as a percent of total cells (Leica Upright Confocal SP5 confocal microscope). […] Cell area was measured by with Metamorph software to calculate relative area per cell.

The next experiment deals with seven WD/DDLS cell lines. In words: cell size, phalloidin staining and flow cytometry. The note with it: continued treatment, all seven cell lines. How it is done: FIGS. 10A-C. […] Cells were plated at a concentration of 25,000 per well in a 4-well chamber slides (Lab-Tek) and treated for seven days with drug or shRNA as described above and stained for senescence-associated β-galactosidase (Cell Signaling kit #9860). Cell number was quantitated by DAPI staining and β-galactosidase staining quantitated as a proportion of total cells. Senescence associated heterochromatic foci were quantitated after cells were fixed with 4% paraformaldehyde, permeabilized with 0.1% Triton, blocked with 2% FBS, and stained with antibodies against HP1γ (1:5000 dilution, 2MOD-1G6 Millipore). Senescent cells were identified by immunofluorescence after treatment of slides with anti-mouse secondary antibodies and quantitation of focal SAHF as a percent of total cells (Leica Upright Confocal SP5 confocal microscope). Actin was marked using phalloidin staining (1:500, Invitrogen) and cells were counterstained with DAPI. Cell area was measured by with Metamorph software to calculate relative area per cell.

SMILES strings stand for the structures.

For `CC(=O)c1c(C)c2cnc(Nc3ccc(N4CCNCC4)cn3)nc2n(C2CCCC2)c1=O` [PD0332991], the “MDM2 stability / protein half-life” value in experiment [1] was “markedly reduced”. The “incorporation of bromodeoxyuridine (BrdU)” value in experiment [2] was “significant reduction”. Also, the “CHK2 mobility or KAP1 phosphorylation, markers of ATM activity” value in experiment [3] is “did not induce significant changes”. Besides, the “annexin V staining, a marker of apoptosis” value with WD/DDLS cell lines is listed as “did not induce a significant change”. Also, the “number of γH2Ax and 5313P1 foci” value in experiment [4] is “reduced”. The number of foci result in experiment [5] is on record as “largely unaffected”. Moreover, the “number of SA-β-gal or SAHF positive cells” value in experiment [6] (seven days after exposure) is listed as “significant increase”. Also, the “concentration giving a significant increase in SA-β-gal or SAHF positive cells” value in experiment [6] (seven days, concentrations as low as) was no more than 100 nM. For the same compound, the “cell size / cell volume” value in the experiment on seven WD/DDLS cell lines is “enlarged”.
